Results on 80 molecules are retold here after PubChem BioAssay AID602264 (The Scripps Research Institute Molecular Screening Center, 2012).

The target of the test is Mu-type opioid receptor (Homo sapiens) + Delta-type opioid receptor (Homo sapiens) (UniProt P35372+P41143). Description: OPRM1-OPRD1 heterodimer agonist potency – cell-based, luminescence, counter-screen for MC4R biased agonist project, dose response (AID 602264). As to conditions: cell-based OPRM1-OPRD1 heterodimerization. On the technique in general: The purpose of a counterscreen is to sort out artefacts and off-target activity.
Sequence of Mu-type opioid receptor (Homo sapiens) + Delta-type opioid receptor (Homo sapiens) (P35372 whole entry, looked up): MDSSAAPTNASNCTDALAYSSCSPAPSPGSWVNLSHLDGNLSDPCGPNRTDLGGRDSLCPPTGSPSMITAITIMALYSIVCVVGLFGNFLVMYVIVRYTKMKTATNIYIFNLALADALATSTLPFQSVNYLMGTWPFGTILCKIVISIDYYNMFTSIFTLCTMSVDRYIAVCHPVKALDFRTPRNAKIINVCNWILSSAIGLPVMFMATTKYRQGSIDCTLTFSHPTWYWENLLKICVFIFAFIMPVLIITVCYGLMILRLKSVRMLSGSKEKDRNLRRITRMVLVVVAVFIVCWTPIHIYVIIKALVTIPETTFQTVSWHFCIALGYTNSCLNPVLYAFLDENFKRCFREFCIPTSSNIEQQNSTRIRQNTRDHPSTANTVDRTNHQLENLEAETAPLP
Sequence of Mu-type opioid receptor (Homo sapiens) + Delta-type opioid receptor (Homo sapiens) (P41143 whole entry, looked up): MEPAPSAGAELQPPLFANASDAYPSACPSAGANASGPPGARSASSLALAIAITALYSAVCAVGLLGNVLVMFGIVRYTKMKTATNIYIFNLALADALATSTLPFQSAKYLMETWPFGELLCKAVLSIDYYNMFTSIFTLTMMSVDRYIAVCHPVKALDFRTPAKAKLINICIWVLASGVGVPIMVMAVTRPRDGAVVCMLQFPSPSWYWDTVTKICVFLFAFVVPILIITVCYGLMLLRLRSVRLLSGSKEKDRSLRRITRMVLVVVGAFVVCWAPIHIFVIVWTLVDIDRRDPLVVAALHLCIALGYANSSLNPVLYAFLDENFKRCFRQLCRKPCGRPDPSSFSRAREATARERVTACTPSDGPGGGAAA

Active and inactive are the calls of the source. How the calls were made is not given here. Some results are limits rather than exact numbers.

`COc1cccc(-c2cnc3c(NC=O)cc(-c4ccc(O)c(OC)c4)cn23)c1`: the EC50 is > 64.6 µM (inactive).

As to `CCOc1ccc(NC(=S)NC(=O)/C=C/c2ccc(C)cc2)c([N+](=O)[O-])c1`, the EC50 was > 64.6 µM (inactive).

As to `CCN1CCN(Cc2ccc(NC(=O)c3cc(NC(=O)c4cncc(-c5ccc(C#N)cc5)c4)cc(OC)c3)cc2C(F)(F)F)CC1`, the EC50 is > 64.6 µM (inactive).

Consider `COc1ccc(-c2oc3ccc(-c4ccc5c(c4)OCO5)cc3c2C#CC2(O)CCCCC2)cc1`, for which the EC50 is > 64.6 µM (inactive).

With `CC(=O)Nc1cc(-c2cccc(F)c2)cn2c(-c3ccc(F)c(Cl)c3)cnc12`, the EC50 is > 64.6 µM (inactive).

For the molecule `Cc1ccc(NC(=S)NC(=O)c2ccc(-c3ccc(Cl)cc3)o2)c(O)c1`, the EC50 is > 64.6 µM (inactive).

`Cc1ccc(C(=O)c2coc3c2C(=O)C(=O)c2ccccc2-3)cc1`: the EC50 was > 64.6 µM (inactive).

Turning to `COc1ccccc1-c1cc(NC=O)c2ncc(-c3cccc(C(F)(F)F)c3)n2c1`, the EC50 was > 64.6 µM (inactive).

For the molecule `COc1ccc2sc(-c3ccc(S(C)(=O)=O)cc3)c(C#Cc3cncn3C)c2c1`, the EC50 was > 92.5 µM (inactive).

For the molecule `CCN1CCN(Cc2ccc(NC(=O)c3cc(NC(=O)c4cc5cccc(OC)c5o4)cc(OC)c3)cc2C(F)(F)F)CC1`, the EC50 was > 64.6 µM (inactive).

Regarding `CC(=O)Nc1cc(-c2ccc(C(=O)NC3CC3)cc2)cn2c(-c3cccc(C(C)=O)c3)cnc12`, the EC50 was > 64.6 µM (inactive).

As for `c1ccc(-c2sc3ccccc3c2-c2ccc(OCCN3CCCC3)cc2)cc1`, the EC50 is > 92.5 µM (inactive).

Consider `CC(=O)Nc1cc(-c2ccc(F)cc2)cn2c(-c3ccc(F)c(Cl)c3)cnc12`, for which the EC50 is > 64.6 µM (inactive).

On to `CC(=O)Nc1ccc(-c2csc(NC(=O)Nc3ccccc3)n2)cc1`, for which the EC50 is > 64.6 µM (inactive).

Consider `Cc1ccccc1NC(=O)c1ccc(COc2ccc3c(C)cc(=O)oc3c2)cc1`, for which the EC50 is > 64.6 µM (inactive).

`NC(N)=Nc1nc(-c2ccccc2)c2cc(Cl)ccc2n1`: the EC50 is > 10.3 µM (inactive).

For the molecule `Cc1nnnn1/C(=C\c1ccccc1)C(=O)OCC(=O)Nc1ccc(Cl)cc1F`, the EC50 was > 92.5 µM (inactive).

With `O=C(NC(c1ccc(Cl)cc1)c1ccccn1)C1CCN(CCOc2ccc(Cl)cc2Cl)CC1` (stereo not given), the EC50 is > 92.4 µM (inactive).

Regarding `NC(Cc1ccc(Cl)cc1)c1csc(NC(=O)Nc2ccccc2)n1` (stereo not given), the EC50 is > 64.6 µM (inactive).

Consider `CCOC(=O)c1ccc(-c2ccc(/C=C(\C#N)C(=O)NCc3cccs3)o2)cc1`, for which the EC50 is > 64.6 µM (inactive).

Regarding `Clc1ccc(C[n+]2c(-c3ccccc3)cc(-c3ccccc3)cc2-c2ccccc2)cc1`, the EC50 is > 92.5 µM (inactive).

For `CC(=O)Nc1cc(-c2ccccc2F)cn2c(-c3cccc(C(F)(F)F)c3)cnc12`, the EC50 was > 92.5 µM (inactive).

Take `O=C1c2cccc3cccc(c23)C(=O)N1CC1CCN(CC(O)COc2ccc3ccccc3c2)CC1` (stereo not given): the EC50 was > 10.3 µM (inactive).

As for `CN(C)CCNC(=O)c1cccc(-c2cnc3c(NC=O)cc(-c4cccc(C(F)(F)F)c4)cn23)c1`, the EC50 is > 64.6 µM (inactive).

As to `NC(Cc1ccc(C(F)(F)F)cc1)c1csc(NC(=O)Nc2ccccc2)n1` (stereo not given), the EC50 was > 92.5 µM (inactive).

With `CC12CCC3C(CC=C4CC(O)CCC43C)C1C/C(=C\c1ccccc1F)C2=O` (stereo not given), the EC50 entry is “inactive”.

On to `CC(=O)c1cccc(-c2cnc3c(NC=O)cc(-c4ccccc4F)cn23)c1`, for which the EC50 was > 64.6 µM (inactive).

For `COc1cc(/C=C2\Oc3ccc(C#Cc4ccc(O)cc4)cc3C2=O)cc(OC)c1`, the EC50 is > 92.5 µM (inactive).

Take `Cc1ccc(Sc2ccc(NC(=O)CCl)cc2)cc1C`: the EC50 result was “inactive”.

For the molecule `COc1cccc(-c2cnc3c(NC=O)cc(-c4ccoc4)cn23)c1`, the EC50 is > 64.6 µM (inactive).

`CCSc1nnc(NC(=O)c2csc3c2CCCC3)s1`: the EC50 is > 92.5 µM (inactive).

With `O=C(N/N=C/c1ccc(OCc2ccccc2)cc1)c1cccs1`, the EC50 is > 92.5 µM (inactive).

For the molecule `COc1ccc(-c2cc(NC(C)=O)c3ncc(-c4cccc(C(C)=O)c4)n3c2)cc1OC`, the EC50 was > 64.6 µM (inactive).

As for `Cc1ccc(O)c(C(=O)/C=C/c2ccc3c(c2)OCCCO3)c1`, the EC50 was > 64.6 µM (inactive).

For the molecule `CCOc1ccc(Cn2c3ccc(OC)cc3c3nc4ccccc4nc32)cc1`, the EC50 was > 64.6 µM (inactive).

As for `CCN1CCN(CCNC(=O)c2ccc(/C=C3\Sc4ccccc4N(Cc4ccccc4F)C3=O)cc2)CC1`, the EC50 is > 92.5 µM (inactive).

`Cc1nc(NC(=O)c2cccc(-c3cc4ccccc4oc3=O)c2)ccc1Br`: the EC50 was > 64.6 µM (inactive).

Consider `O=C(N/N=C/c1c[nH]c2ccccc12)C1CC1(c1ccccc1)c1ccccc1` (stereo not given), for which the EC50 is > 92.5 µM (inactive).

Turning to `Clc1ccccc1/C=N/NC1=Nc2cccc3cccc1c23`, the EC50 is > 64.6 µM (inactive).

Consider `COc1ccc(COc2ccsc2C(=O)Nc2ccc(Cl)c(Cl)c2)cc1`, for which the EC50 is > 64.6 µM (inactive).

Turning to `O=C(c1ccc(COc2ccc(Br)cc2)o1)N1N=C(C(F)F)CC1(O)C(F)F` (stereo not given), the EC50 entry was “inactive”.

For the molecule `CCCCCCCCCCCCCCCC[N+](C)(C)Cc1ccc(F)cc1`, the EC50 is > 92.5 µM (inactive).

In the case of `CCOc1ccc(Cn2c3ccc(OC)cc3c3nc4ccccc4nc32)cc1OC`, the EC50 is > 64.6 µM (inactive).

Regarding `COc1cccc(-c2cnc3c(NC(C)=O)cc(-c4cc(OC)c(OC)c(OC)c4)cn23)c1`, the EC50 is > 64.6 µM (inactive).

On to `Cc1cccnc1C(c1ccc(F)cc1)N(C)C(=O)C1CCN(CCOc2ccc(Cl)cc2Cl)CC1` (stereo not given), for which the EC50 was > 92.5 µM (inactive).

Turning to `Cc1c(CN2CCC(CO)(CCOc3ccccc3)CC2)[nH]c2c(Cl)cccc12`, the EC50 was > 92.5 µM (inactive).

As for `CCOCCCN(Cc1ccco1)C(=O)c1cc2c(=O)[nH]c3ccc(C)cc3c2s1`, the EC50 was > 64.6 µM (inactive).

For `COc1ccc(CNCCc2ccc(Cl)cc2)cc1OCc1ccccc1`, the EC50 is > 92.5 µM (inactive).

As to `COc1ccc(/C=N/NC(=O)c2ccc(COc3ccccc3Cl)o2)c(OC)c1C`, the EC50 is > 64.6 µM (inactive).

As to `Cc1ccc(C(=O)NCCNc2nc3cc(C)c(C)cc3cc2C)cc1`, the EC50 was > 64.6 µM (inactive).

As for `Cc1ccc(OCC(=O)NC(=S)Nc2cccc(NC(=O)c3ccccc3)c2)cc1`, the EC50 is > 64.6 µM (inactive).

With `CN(C)CCCNC(=O)c1ccc(-c2nc(-c3ccc(Cl)cc3)cs2)cc1`, the EC50 is > 64.6 µM (inactive).

For the molecule `COc1cc(C(=O)Nc2nnc(-c3sccc3C)s2)cc(OC)c1OC`, the EC50 was > 92.5 µM (inactive).

With `Cc1ccc(O)c(C(=O)/C=C/c2ccc3c(c2)OCCO3)c1`, the EC50 is > 92.5 µM (inactive).

As for `Cc1cc(C)cc(OCC(O)CN2CCC(CN3C(=O)c4cccc5cccc(c45)C3=O)CC2)c1` (stereo not given), the EC50 is > 64.6 µM (inactive).

`N#C/C(=C\c1cn(CCOc2ccccc2)c2ccccc12)C(=O)NCc1ccco1`: the EC50 was > 92.5 µM (inactive).

On to `COc1ccc(-c2sc3ccccc3c2-c2ccc(OCCN(C)C)cc2)cc1`, for which the EC50 is > 92.5 µM (inactive).

For `COc1ccc2c(c1)CCc1c(C(=O)Nc3ccn(Cc4ccc(C)cc4)n3)noc1-2`, the EC50 was > 92.4 µM (inactive).

As for `COc1ccc(NC(=O)Nc2nc(C(N)Cc3ccc(C(F)(F)F)cc3)cs2)cc1` (stereo not given), the EC50 is > 64.6 µM (inactive).

Consider `CC(O)CC(=O)OC[C@]12CC[C@H]3[C@@](C)(CC[C@H]4C(C)(C)CCC[C@]34C)[C@@H]1CC(C1=CC(=O)OC1O)O2` (stereo not given in full), for which the EC50 is > 64.6 µM (inactive).

Regarding `Cc1ccc(-c2nnc(-c3ccc(NC(=O)Cc4cccs4)cc3)o2)cc1`, the EC50 is > 64.6 µM (inactive).

For `COc1cccc(-c2cnc3c(NC(C)=O)cc(-c4cc(F)ccc4OC)cn23)c1`, the EC50 is > 92.5 µM (inactive).

As for `COc1ccc(-c2csc(C3=C(O)CN(Cc4ccc(Cl)cc4)C3=N)n2)cc1OC`, the EC50 was > 64.6 µM (inactive).

Consider `COc1ccc2[nH]c3c(C)c4ccncc4c(C)c3c2c1`, for which the EC50 was > 64.7 µM (inactive).

`CCc1ccc(CCC(=O)Nc2ncc(Cc3ccccc3Cl)s2)o1`: the EC50 was > 92.5 µM (inactive).

Regarding `Cc1cccc(NC(=S)NC(=O)C(c2ccccc2)c2ccccc2)n1`, the EC50 is > 92.5 µM (inactive).

On to `O=CNc1cc(-c2ccsc2)cn2c(-c3ccccc3)cnc12`, for which the EC50 was > 92.5 µM (inactive).

Consider `CCCCCCCCNS(=O)(=O)CCNCCc1ccccc1`, for which the EC50 was > 92.4 µM (inactive).

For `COc1cccc(-c2cnc3c(NC(C)=O)cc(-c4ccsc4)cn23)c1`, the EC50 was > 92.5 µM (inactive).

For `COc1cc(NC(=O)COc2ccccc2[N+](=O)[O-])ccc1NC(=O)c1cccs1`, the EC50 was > 92.5 µM (inactive).

For the molecule `Oc1ccc(N2CCN(c3ncnc4sc(-c5ccccc5)cc34)CC2)cc1`, the EC50 is > 92.4 µM (inactive).

For the molecule `CC(=O)Nc1cc(-c2ccc(N(C)C)cc2)cn2c(-c3ccc(F)cc3)cnc12`, the EC50 was > 64.6 µM (inactive).

Turning to `Cc1cc(NC(=O)c2cncc(Br)c2)ccc1NC(=O)c1cc2ccccc2o1`, the EC50 was > 64.6 µM (inactive).

As to `CC(=O)Nc1cc(-c2cccnc2)cn2c(-c3ccc(F)cc3)cnc12`, the EC50 is > 64.6 µM (inactive).

With `N#C/C(=C\c1ccc(-c2ccc(F)cc2)o1)C(=O)Nc1nc(-c2cccs2)cs1`, the EC50 is > 64.6 µM (inactive).

As to `CCCCCCCCCCCCCCCC[n+]1cccc(C(=O)N(CC)CC)c1`, the EC50 is > 64.6 µM (inactive).

For `CCC(C)(C)c1ccc(OCCCC[n+]2cccc(C)c2C)c(C(C)(C)CC)c1`, the EC50 was > 64.6 µM (inactive).

Take `Cc1c(CCOC(=O)CC23CC4CC(CC(C)(C4)C2)C3)sc[n+]1CC(=O)c1ccccc1`: the EC50 is > 92.5 µM (inactive).

With `C/C(=N\NC(=O)COc1cccc2ccccc12)c1cccs1`, the EC50 was > 64.6 µM (inactive).

For `CC(=O)Nc1cc(-c2ccccc2N(C)C)cn2c(-c3ccc(F)c(Cl)c3)cnc12`, the EC50 is > 64.6 µM (inactive).

In general, EC50 refers to the concentration giving half of the maximal effect.
